Assay results from patent US20240059755A1, “NANOLIPOPROTEIN-POLYPEPTIDE CONJUGATES AND COMPOSITIONS, SYSTEMS, AND METHODS USING SAME” (Genentech, Inc., priority 2020, published 2024).

System: trypsin
Assay: Trypsin enzymatic assay (L-Arg-AMC substrate)
Type: biochemical
Description: Briefly, the peptide NLP conjugates were incubated at the indicated concentration with trypsin (2 nM) for 30 min at room temperature. The substrate L-Arginine-7-amido-4-methylcoumarin (L-Arg-AMC) (75 μM) was added to the mixture and the proteolytic activity was measured immediately. Samples were run in triplicate and repeated twice. The data were analyzed using KaleidaGraph software.

CCCCCCCCCCCCCCCC(=O)NCCCC[C@H](N)C(=O)NCC(=O)N[C@@H](CO)C(=O)NCC(=O)N[C@@H](CO)C(=O)NCC(=O)N[C@H]1CSSC[C@@H]2NC(=O)CNC(=O)[C@H](C)NC(=O)[C@H](CC(C)C)NC(=O)[C@@H]3CSSC[C@@H](C(=O)NCC(=O)O)NC(=O)[C@H](Cc4ccccc4)NC(=O)CNC(=O)[C@H](CC(N)=O)NC(=O)[C@@H]4CCCN4C(=O)CNC(=O)[C@H](CSSC[C@H](NC(=O)[C@H](CCCNC(=N)N)NC(=O)[C@H](CCSC)NC(=O)[C@H](CC(C)C)NC(=O)[C@H]([C@@H](C)CC)NC(=O)[C@H](CCCNC(=N)N)NC(=O)[C@@H]4CCCN4C1=O)C(=O)N[C@@H](CCCCN)C(=O)N[C@@H](CCC(N)=O)C(=O)N[C@@H](CC(=O)O)C(=O)N[C@@H](CO)C(=O)N[C@@H](CC(=O)O)C(=O)N3)NC(=O)[C@H](C(C)C)NC2=O [CKP-C16]
trypsin inhibitory activity: inhibitory potency
